Measurements: ChEMBL document CHEMBL3046477, “Carbamate derivatives of felbamate as potential anticonvulsant agents” (Med Chem Res, 2010)
The source made the active and inactive calls. The calls are words filed in the database; no cut-off is given here.

Assays:
[1] = tested on: Mus musculus; experiment: Anticonvulsant activity in Mus musculus (mouse) assessed as protection against maximal electroshock-induced seizure at 300 mg/kg, ip; format: functional, organism-based; set-up: dose 300 mg/kg
[2] = tested on: Mus musculus; experiment: Anticonvulsant activity in Mus musculus (mouse) assessed as protection against subcutaneous pentylenetetrazole-induced seizure at 300 mg/kg, ip; format: functional, organism-based; set-up: dose 300 mg/kg
[3] = tested on: Mus musculus; experiment: Anticonvulsant activity in ip dosed Mus musculus Swiss Webster (mouse) assessed as protection against subcutaneous pentylenetetrazole-induced seizure at 0.5 hr; format: functional
[4] = tested on: Mus musculus; experiment: Anticonvulsant activity in ip dosed Mus musculus Swiss Webster (mouse) assessed as protection against maximal electroshock-induced seizure at 0.5 hr; format: functional
[5] = tested on: Rattus norvegicus; experiment: Protective index, ratio of TD50 for po dosed Rattus norvegicus (rat) to ED50 for po dosed rat by subcutaneous pentylenetetrazole seizure test; format: functional
[6] = tested on: Rattus norvegicus; experiment: Protective index, ratio of TD50 for po dosed Rattus norvegicus (rat) to ED50 for po dosed rat by maximal electroshock seizures test; format: functional
[7] = tested on: Rattus norvegicus; experiment: Neurotoxicity in Rattus norvegicus (rat) assessed as minimal motor impairment at 20 mg/kg, ip at 60 min by rotorod test; format: toxicity, organism-based; set-up: dose 20 mg/kg, route intraperitoneal; details: in vivo, 1 h
[8] = tested on: Rattus norvegicus; experiment: Neurotoxicity in Rattus norvegicus (rat) assessed as minimal motor impairment at 20 mg/kg, ip at 30 min by rotorod test; format: toxicity, organism-based; set-up: dose 20 mg/kg, route intraperitoneal; details: in vivo, 0.5 h
[9] = tested on: Rattus norvegicus; experiment: Neurotoxicity in Rattus norvegicus (rat) assessed as minimal motor impairment at 20 mg/kg, ip at 5 min by rotorod test; format: toxicity, organism-based; set-up: dose 20 mg/kg, route intraperitoneal; details: in vivo
[10] = tested on: Rattus norvegicus; experiment: Anticonvulsant activity in Rattus norvegicus (rat) assessed as protection against maximal electroshock-induced seizure at 20 mg/kg, ip at 10 min; format: functional, organism-based; set-up: dose 20 mg/kg
[11] = tested on: Mus musculus; experiment: Anticonvulsant activity in Mus musculus (mouse) assessed as protection against maximal electroshock-induced seizure up to 300 mg/kg, ip; format: functional, organism-based; set-up: dose 300 mg/kg
[12] = Neurotoxicity in po dosed Rattus norvegicus (rat) assessed as minimal motor impairment by rotorod test; format: toxicity, organism-based; details: in vivo
[13] = tested on: Rattus norvegicus; experiment: Anticonvulsant activity in po dosed Rattus norvegicus (rat) assessed as protection against subcutaneous pentylenetetrazole-induced seizure; format: functional
[14] = tested on: Rattus norvegicus; experiment: Anticonvulsant activity in po dosed Rattus norvegicus (rat) assessed as protection against maximal electroshock-induced seizure; format: functional
[15] = tested on: Mus musculus; experiment: Anticonvulsant activity in Mus musculus (mouse) assessed as protection against subcutaneous pentylenetetrazole-induced seizure up to 300 mg/kg, ip; format: functional, organism-based; set-up: dose 300 mg/kg
[16] = tested on: Rattus norvegicus; experiment: Anticonvulsant activity in Rattus norvegicus (rat) assessed as protection against maximal electroshock-induced seizure at 20 mg/kg, ip at 60 min; format: functional, organism-based; set-up: dose 20 mg/kg
[17] = tested on: Rattus norvegicus; experiment: Neurotoxicity in Rattus norvegicus (rat) assessed as minimal motor impairment at 20 mg/kg, ip at 15 min by rotorod test; format: toxicity, organism-based; set-up: dose 20 mg/kg, route intraperitoneal; details: in vivo, 0.25 h
[18] = tested on: Rattus norvegicus; experiment: Neurotoxicity in Rattus norvegicus (rat) assessed as minimal motor impairment at 20 mg/kg, ip at 10 min by rotorod test; format: toxicity, organism-based; set-up: dose 20 mg/kg, route intraperitoneal; details: in vivo
[19] = tested on: Rattus norvegicus; experiment: Neurotoxicity in Rattus norvegicus (rat) at 300 mg/kg, ip; format: toxicity, organism-based; set-up: dose 300 mg/kg, route intraperitoneal; details: in vivo
[20] = tested on: Rattus norvegicus; experiment: Anticonvulsant activity Rattus norvegicus (rat) assessed as reduction of hippocampus kindling at 100 mg/kg, ip; format: functional, organism-based; set-up: dose 100 mg/kg
[21] = tested on: Mus musculus; experiment: Anticonvulsant activity in po dosed Mus musculus (mouse) assessed as protection against maximal electroshock-induced seizure; format: functional
[22] = tested on: Rattus norvegicus; experiment: Anticonvulsant activity in Rattus norvegicus (rat) assessed as protection against maximal electroshock-induced seizure at 20 mg/kg, ip at 30 min; format: functional, organism-based; set-up: dose 20 mg/kg
[23] = tested on: Rattus norvegicus; experiment: Anticonvulsant activity in Rattus norvegicus (rat) assessed as protection against maximal electroshock-induced seizure at 20 mg/kg, ip at 15 min; format: functional, organism-based; set-up: dose 20 mg/kg
[24] = tested on: Rattus norvegicus; experiment: Anticonvulsant activity in Rattus norvegicus (rat) assessed as protection against maximal electroshock-induced seizure at 30 mg/kg, po; format: functional, organism-based; set-up: dose 30 mg/kg
[25] = tested on: Mus musculus; experiment: Anticonvulsant activity in po dosed Mus musculus Swiss Webster (mouse) assessed as protection against maximal electroshock-induced seizure at 0.5 hr; format: functional
[26] = tested on: Mus musculus; experiment: Anticonvulsant activity in ip dosed Mus musculus (mouse) assessed as protection against subcutaneous pentylenetetrazole-induced seizure; format: functional
[27] = tested on: Mus musculus; experiment: Anticonvulsant activity in ip dosed Mus musculus (mouse) assessed as protection against maximal electroshock-induced seizures; format: functional
[28] = tested on: Mus musculus; experiment: Anticonvulsant activity in Mus musculus Swiss Webster (mouse) assessed as protection against maximal electroshock-induced seizure at 300 mg/kg, ip at 0.5 hr; format: functional, organism-based; set-up: dose 300 mg/kg
[29] = tested on: Mus musculus; experiment: Anticonvulsant activity in Mus musculus Swiss Webster (mouse) assessed as protection against subcutaneous pentylenetetrazole-induced seizure up to 300 mg/kg, ip at 0.5 hr; format: functional, organism-based; set-up: dose 300 mg/kg
[30] = tested on: Rattus norvegicus; experiment: Anticonvulsant activity in ip dosed Rattus norvegicus (rat) assessed as protection against maximal electroshock-induced seizure; format: functional
[31] = Neurotoxicity in ip dosed Mus musculus (mouse) assessed as minimal motor impairment by rotorod test; format: toxicity, organism-based; details: in vivo
[32] = tested on: Mus musculus; experiment: Anticonvulsant activity in Mus musculus (mouse) assessed as protection against maximal electroshock-induced seizure at 100 mg/kg, ip; format: functional, organism-based; set-up: dose 100 mg/kg
[33] = Neurotoxicity in ip dosed Rattus norvegicus (rat) assessed as minimal motor impairment at 0.5 hr by rotorod test; format: toxicity, organism-based; details: in vivo

## CCCC(CO)NC(=O)OCc1ccccc1 (racemic)
[1]
  Activity: Active
[2]
  Activity: Active
[3]
  ED50: 281 mg/kg
[4]
  ED50: 51.8 mg/kg

## C[C@H](CO)NC(=O)OCc1ccccc1
[5]
  Ratio TD50/ED50: 2
[6]
  Ratio TD50/ED50: >21
[7]
  Activity: Non-toxic
[8]
  Activity: Non-toxic
[9]
  Activity: Non-toxic
[10]
  Activity: inactive
[11]
  Activity: inactive
[12]
  TD50: > 500 mg/kg
[13]
  ED50: > 250 mg/kg
[14]
  ED50: 23.9 mg/kg
[15]
  Activity: inactive
[3]
  ED50: 226 mg/kg
[4]
  ED50: 60.1 mg/kg
[16]
  Activity: inactive
[17]
  Activity: Non-toxic
[18]
  Activity: Non-toxic
[19]
  Activity: Toxic
[20]
  Activity: inactive

## CC[C@H](CO)NC(=O)OCc1ccccc1
[15]
  Activity: inactive
[1]
  Activity: Active
[3]
  ED50: 144 mg/kg
[4]
  ED50: 80.5 mg/kg

## O=C(NCCO)OCc1ccccc1
[15]
  Activity: inactive
[1]
  Activity: Active
[3]
  ED50: 170 mg/kg
[4]
  ED50: 25.2 mg/kg

## NC(=O)OCC(CO)c1ccccc1 (stereo unspecified)
[21]
  ED50: 154 mg/kg

## C[C@@H](CO)NC(=O)OCc1ccccc1
[5]
  Ratio TD50/ED50: 2.88
[6]
  Ratio TD50/ED50: >5.3
[7]
  Activity: Non-toxic
[8]
  Activity: Non-toxic
[9]
  Activity: Non-toxic
[22]
  Activity: inactive
[23]
  Activity: inactive
[11]
  Activity: inactive
[12]
  TD50: > 360 mg/kg
[13]
  ED50: > 125 mg/kg
[14]
  ED50: 67.6 mg/kg
[24]
  Activity: Active
[15]
  Activity: inactive
[3]
  ED50: 258 mg/kg
[4]
  ED50: 54.7 mg/kg
[17]
  Activity: Non-toxic
[18]
  Activity: Non-toxic

## O=C(NCc1ccccc1)OCc1ccccc1 [BENZYL BENZYLCARBAMATE]
[15]
  Activity: inactive
[1]
  Activity: Active
[3]
  ED50: 115 mg/kg
[4]
  ED50: 170 mg/kg

## NC(=O)OCC(COC(N)=O)c1ccccc1 [FELBAMATE]
[25]
  ED50: 52 mg/kg
[12]
  TD50: > 500 mg/kg
[13]
  ED50: > 250 mg/kg
[14]
  ED50: 25.3 mg/kg
[26]
  ED50: 126 mg/kg
[27]
  ED50: 35.5 mg/kg
[3]
  ED50: 548 mg/kg
[4]
  ED50: 35 mg/kg
[20]
  Activity: inactive

## NC(=O)Oc1ccccc1 [CARBAMIC ACID PHENYL ESTER]
[28]
  Activity: Active
[3]
  ED50: 101 mg/kg

## CC[C@@H](CO)NC(=O)OCc1ccccc1
[15]
  Activity: inactive
[1]
  Activity: Active
[3]
  ED50: 111 mg/kg
[4]
  ED50: 123 mg/kg

## O=C(N[C@@H](CO)Cc1ccccc1)OCc1ccccc1
[15]
  Activity: inactive
[1]
  Activity: Active
[3]
  Anticonvulsant activity: Active
[4]
  ED50: 14.9 mg/kg

## NC(=O)OCc1ccccc1 [BENZYL CARBAMATE]
[3]
  ED50: 80.2 mg/kg
[4]
  ED50: 30.6 mg/kg

## CNC(=O)OCc1ccccc1 [BENZYL N-METHYLCARBAMATE]
[29]
  Activity: inactive
[4]
  ED50: 40.5 mg/kg

## CCCC(C)(COC(N)=O)COC(N)=O [MEPROBAMATE]
[25]
  ED50: 165 mg/kg
[3]
  ED50: 66 mg/kg
[4]
  ED50: 127 mg/kg

## NC(=O)OCCc1ccccc1 [PHENYLETHYL CARBAMATE]
[29]
  Activity: inactive
[4]
  ED50: 17.7 mg/kg

## O=C(N[C@H](CO)Cc1ccccc1)OCc1ccccc1
[15]
  Activity: inactive
[1]
  Activity: Active
[3]
  Activity: Active
[4]
  ED50: 33.5 mg/kg

## CCC(COC(N)=O)c1ccccc1 (racemic)
[30]
  ED50: 16.1 mg/kg
[5]
  Ratio TD50/ED50: 8
[6]
  Ratio TD50/ED50: >15.3
[12]
  TD50: > 320 mg/kg
[13]
  ED50: > 40 mg/kg
[14]
  ED50: 21 mg/kg
[24]
  Activity: Active
[31]
  TD50: 114 mg/kg
[26]
  ED50: 87.6 mg/kg
[27]
  ED50: 72.7 mg/kg
[2]
  Activity: Active
[32]
  Activity: Active
[3]
  ED50: 124 mg/kg
[4]
  ED50: 71.7 mg/kg
[19]
  Activity: Toxic
[20]
  Activity: inactive
[33]
  TD50 at 0.5 h: 50.5 mg/kg
